Experimental data taken from patent publication US20230085307A1, “PYRIDAZINONE COMPOUND AND HERBICIDE” (NISSAN CHEMICAL CORPORATION, priority 2019, published 2023).

Tests used:
chickweed = test: Test Example 4: herbicidal effect by soil treatment (Table 19, symbol P); format: in vivo, common chickweed (Stellaria media); details: amount of applied herbicide 320 g/ha
Outline: (§1)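 Seeds were sown in sterilized diluvial soil and covered with about 1.5 cm of soil. An emulsion formulation diluted with water to a predetermined herbicide amount was sprayed evenly onto the soil surface. Plants grew in a greenhouse at 25° C. to 30° C., and the effect was scored three weeks after application using criteria from an earlier test.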

persian speedwell = test: Test Example 5: herbicidal effect by foliage application, plastic box (Table 20, symbol R); format: in vivo, Persian speedwell (Veronica persica); details: for R: persian speedwell, herbicidal effect grade / herbicidal effect on R: persian speedwell (evaluation grade 0-5): 320 g/ha; for R: persian speedwell, herbicidal effect grade: three weeks after application; for herbicidal effect on R: persian speedwell (evaluation grade 0-5): foliage application after 14-day growth
Outline: (§2)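 Plants sown in sterilized diluvial soil and grown 14 days in a greenhouse at 25° C to 30° C, then sprayed on the foliage with the compound's emulsion diluted in water to a predetermined herbicide amount. Injury to weeds and crops scored three weeks after application on a visual rating scale.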

redroot pigweed = test: Test Example 5: herbicidal effect by foliage application, plastic box (Table 20, symbol N); format: in vivo, redroot pigweed (Amaranthus retroflexus); details: for N: redroot pigweed, herbicidal effect grade / herbicidal effect on N: redroot pigweed (evaluation grade 0-5): 320 g/ha; for N: redroot pigweed, herbicidal effect grade: three weeks after application; for herbicidal effect on N: redroot pigweed (evaluation grade 0-5): foliage application after 14-day growth
Outline: as §2

Chinese sprangletop = test: Test Example 3: herbicidal effect by foliage application, Wagner pot (Table 18, symbol D); format: in vivo, chinese sprangletop (Leptochloa chinensis); details: for herbicidal effect on D: Chinese sprangletop: amount of applied herbicide 320 g/ha; for herbicidal effect on Chinese sprangletop (D): 320 g/ha
Outline: (§3)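 Plants were sown in alluvial soil held under 0.1–0.5 cm standing water and grown 14 days in a greenhouse at 25–30 °C. An emulsifiable formulation, water-diluted to the set dose, was then sprayed onto the foliage, and effects were scored three weeks later using previously defined criteria.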

lambsquarters = test: Test Example 5: herbicidal effect by foliage application, plastic box (Table 20, symbol O); format: in vivo, lambsquarters (Chenopodium album); details: for O: lambsquarters, herbicidal effect grade / herbicidal effect on O: lambsquarters (evaluation grade 0-5): 320 g/ha; for O: lambsquarters, herbicidal effect grade: three weeks after application; for herbicidal effect on O: lambsquarters (evaluation grade 0-5): foliage application after 14-day growth
Outline: as §2

southern crabgrass = test: Test Example 4: herbicidal effect by soil treatment (Table 19, symbol F); format: in vivo, southern crabgrass (Digitaria ciliaris); details: amount of applied herbicide 320 g/ha
Outline: as §1

oval-leafed pondweed = test: Test Example 1: herbicidal activity, application before weed generation under submerged conditions (Table 16, symbol C); format: in vivo, oval-leafed pondweed (Monochoria vaginalis); details: amount of applied herbicide 320 g/ha
Outline: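 Emulsion formulation, water-diluted to set dose, was put onto the flooded surface (4 cm depth, alluvial soil) the same day weeds were sown and 2.5-leaf rice transplanted. After 3 weeks at 25-30 °C under glass, each species was rated 0 (≤5% kill) to 5 (≥90% kill).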

barnyard grass [1] = test: Test Example 3: herbicidal effect by foliage application, Wagner pot (Table 18, symbol H); format: in vivo, barnyard grass (Echinochloa crus-galli); details: for herbicidal effect on H: barnyard grass: amount of applied herbicide 320 g/ha; for herbicidal effect on barnyard grass (H): 320 g/ha
Outline: as §3

rice flat sedge = test: Test Example 3: herbicidal effect by foliage application, Wagner pot (Table 18, symbol E); format: in vivo, rice flat sedge (Cyperus iria); details: for herbicidal effect on E: rice flat sedge: amount of applied herbicide 320 g/ha; for herbicidal effect on rice flat sedge (E): 320 g/ha
Outline: as §3

barnyard grass [2] = test: Test Example 4: herbicidal effect by soil treatment (Table 19, symbol H); format: in vivo, barnyard grass (Echinochloa crus-galli); details: amount of applied herbicide 320 g/ha
Outline: as §1

windgrass = test: Test Example 4: herbicidal effect by soil treatment (Table 19, symbol L); format: in vivo, windgrass (Apera spica-venti); details: amount of applied herbicide 320 g/ha
Outline: as §1

late watergrass = test: Test Example 2: herbicidal activity, application during weed generation under submerged conditions (Table 17, symbol A); format: in vivo, late watergrass (Echinochloa oryzicola); details: AAH 320 g/ha; application during weed generation, submerged conditions
Outline: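 Mixed weed seedlings in alluvial soil under a 4 cm water layer, greenhouse-grown at 25–30° C. Compound given as a diluted emulsion into the floodwater at the 1–2 leaf stage; response graded after three weeks.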

[3] = evaluated three weeks after application
[4] = foliage application, AAH 320 g/ha, evaluated three weeks after application

## CCOC(=O)Oc1c(C)nn(C)c(=O)c1-c1c(-c2ccccc2OC)sc2cc(F)ccc12 [3-024]
chickweed
  P: chickweed, herbicidal effect grade: 3 (Herbicidal rate of 40% or more and less than 70%)
Persian speedwell; foliage application
  R: persian speedwell, herbicidal effect grade: 1 (Herbicidal rate of 5% or more and less than 20%)
Redroot pigweed; foliage application
  N: redroot pigweed, herbicidal effect grade: 5 (Herbicidal rate of 90% or more (almost completely withered))
Chinese sprangletop
  herbicidal effect on D: Chinese sprangletop: 3 (Herbicidal rate of 40% or more and less than 70%)
lambsquarters; foliage application
  O: lambsquarters, herbicidal effect grade: 4 (Herbicidal rate of 70% or more and less than 90%)
Southern crabgrass
  F: southern crabgrass, herbicidal effect grade: 3 (Herbicidal rate of 40% or more and less than 70%)
oval-leafed pondweed
  Herbicidal effect, C: oval-leafed pondweed: 0 (Herbicidal rate of 5% or less (almost no effect))
Barnyard grass [1]
  herbicidal effect on H: barnyard grass: 5 (Herbicidal rate of 90% or more (almost completely withered))
Rice flat sedge
  herbicidal effect on E: rice flat sedge: 5 (Herbicidal rate of 90% or more (almost completely withered))
Barnyard grass [2]
  H: barnyard grass, herbicidal effect grade: 3 (Herbicidal rate of 40% or more and less than 70%)
windgrass
  L: windgrass, herbicidal effect grade: 3 (Herbicidal rate of 40% or more and less than 70%)
Late watergrass
  herbicidal effect rating, A: late watergrass: 2 (Herbicidal rate of 20% or more and less than 40%)

## COc1ccccc1-c1sc2cc(OC(C)C)ccc2c1-c1c(O)c(C)nn(C)c1=O [3-101]
chickweed
  P: chickweed, herbicidal effect grade: 4 (Herbicidal rate of 70% or more and less than 90%)
Persian speedwell; foliage application
  R: persian speedwell, herbicidal effect grade: 5 (Herbicidal rate of 90% or more (almost completely withered))
Redroot pigweed; foliage application
  N: redroot pigweed, herbicidal effect grade: 5 (Herbicidal rate of 90% or more (almost completely withered))
Chinese sprangletop
  herbicidal effect on Chinese sprangletop (D): 3 (Herbicidal rate of 40% or more and less than 70%)
lambsquarters; foliage application
  O: lambsquarters, herbicidal effect grade: 5 (Herbicidal rate of 90% or more (almost completely withered))
Southern crabgrass
  F: southern crabgrass, herbicidal effect grade: 2 (Herbicidal rate of 20% or more and less than 40%)
oval-leafed pondweed
  Herbicidal effect, C: oval-leafed pondweed: 5 (Herbicidal rate of 90% or more (almost completely withered))
Barnyard grass [1]
  herbicidal effect on barnyard grass (H): 5 (Herbicidal rate of 90% or more (almost completely withered))
Rice flat sedge
  herbicidal effect on rice flat sedge (E): 5 (Herbicidal rate of 90% or more (almost completely withered))
Barnyard grass [2]
  H: barnyard grass, herbicidal effect grade: 5 (Herbicidal rate of 90% or more (almost completely withered))
windgrass
  L: windgrass, herbicidal effect grade: 4 (Herbicidal rate of 70% or more and less than 90%)
Late watergrass
  herbicidal effect rating, A: late watergrass: 3 (Herbicidal rate of 40% or more and less than 70%)

## CCCC(=O)Oc1c(C)nn(C)c(=O)c1-c1c(-c2ccc(F)cc2OCC)sc2c(Cl)cccc12 [4-036]
chickweed
  Herbicidal effect by soil treatment, P: chickweed: 2 (Herbicidal rate of 20% or more and less than 40%)
Persian speedwell; [3]
  herbicidal effect on R: persian speedwell (evaluation grade 0-5): 4 (Herbicidal rate of 70% or more and less than 90%)
Redroot pigweed; [3]
  herbicidal effect on N: redroot pigweed (evaluation grade 0-5): 5 (Herbicidal rate of 90% or more (almost completely withered))
Chinese sprangletop
  herbicidal effect on Chinese sprangletop (D): 5 (Herbicidal rate of 90% or more (almost completely withered))
lambsquarters; [3]
  herbicidal effect on O: lambsquarters (evaluation grade 0-5): 2 (Herbicidal rate of 20% or more and less than 40%)
Southern crabgrass
  Herbicidal effect by soil treatment, F: southern crabgrass: 4 (Herbicidal rate of 70% or more and less than 90%)
oval-leafed pondweed
  Herbicidal effect, C: oval-leafed pondweed: 4 (Herbicidal rate of 70% or more and less than 90%)
Barnyard grass [1]
  herbicidal effect on barnyard grass (H): 5 (Herbicidal rate of 90% or more (almost completely withered))
Rice flat sedge
  herbicidal effect on rice flat sedge (E): 5 (Herbicidal rate of 90% or more (almost completely withered))
Barnyard grass [2]
  Herbicidal effect by soil treatment, H: barnyard grass: 3 (Herbicidal rate of 40% or more and less than 70%)
windgrass
  Herbicidal effect by soil treatment, L: windgrass: 0 (Herbicidal rate of 5% or less (almost no effect))
Late watergrass
  herbicidal effect rating, A: late watergrass: 3 (Herbicidal rate of 40% or more and less than 70%)

## COc1ccccc1-c1sc2cc(OCC3CC3(F)F)ccc2c1-c1c(O)c(C)nn(C)c1=O (stereo not drawn) [3-131]
chickweed
  P: chickweed, herbicidal effect grade: 4 (Herbicidal rate of 70% or more and less than 90%)
Persian speedwell; foliage application
  R: persian speedwell, herbicidal effect grade: 5 (Herbicidal rate of 90% or more (almost completely withered))
Redroot pigweed; foliage application
  N: redroot pigweed, herbicidal effect grade: 5 (Herbicidal rate of 90% or more (almost completely withered))
Chinese sprangletop
  herbicidal effect on Chinese sprangletop (D): 3 (Herbicidal rate of 40% or more and less than 70%)
lambsquarters; foliage application
  O: lambsquarters, herbicidal effect grade: 5 (Herbicidal rate of 90% or more (almost completely withered))
Southern crabgrass
  F: southern crabgrass, herbicidal effect grade: 3 (Herbicidal rate of 40% or more and less than 70%)
oval-leafed pondweed
  Herbicidal effect, C: oval-leafed pondweed: 5 (Herbicidal rate of 90% or more (almost completely withered))
Barnyard grass [1]
  herbicidal effect on barnyard grass (H): 5 (Herbicidal rate of 90% or more (almost completely withered))
Rice flat sedge
  herbicidal effect on rice flat sedge (E): 5 (Herbicidal rate of 90% or more (almost completely withered))
Barnyard grass [2]
  H: barnyard grass, herbicidal effect grade: 2 (Herbicidal rate of 20% or more and less than 40%)
windgrass
  L: windgrass, herbicidal effect grade: 3 (Herbicidal rate of 40% or more and less than 70%)
Late watergrass
  herbicidal effect rating, A: late watergrass: 5 (Herbicidal rate of 90% or more (almost completely withered))

## Cc1nn(C)c(=O)c(-c2c(-c3ccc4c(c3)OC(F)(F)O4)sc3ccc(F)cc23)c1O [2-392]
chickweed
  herbicidal effect, P: chickweed: 5 (Herbicidal rate of 90% or more (almost completely withered))
Persian speedwell; [4]
  R: persian speedwell, herbicidal effect (criteria 0-5): 5 (Herbicidal rate of 90% or more (almost completely withered))
Redroot pigweed; [4]
  N: redroot pigweed, herbicidal effect (criteria 0-5): 4 (Herbicidal rate of 70% or more and less than 90%)
Chinese sprangletop
  herbicidal effect on D: Chinese sprangletop: 4 (Herbicidal rate of 70% or more and less than 90%)
lambsquarters; [4]
  O: lambsquarters, herbicidal effect (criteria 0-5): 5 (Herbicidal rate of 90% or more (almost completely withered))
Southern crabgrass
  herbicidal effect, F: southern crabgrass: 2 (Herbicidal rate of 20% or more and less than 40%)
oval-leafed pondweed
  Herbicidal effect, C: oval-leafed pondweed: 0 (Herbicidal rate of 5% or less (almost no effect))
Barnyard grass [1]
  herbicidal effect on H: barnyard grass: 5 (Herbicidal rate of 90% or more (almost completely withered))
Rice flat sedge
  herbicidal effect on E: rice flat sedge: 5 (Herbicidal rate of 90% or more (almost completely withered))
Barnyard grass [2]
  herbicidal effect, H: barnyard grass: 2 (Herbicidal rate of 20% or more and less than 40%)
windgrass
  herbicidal effect, L: windgrass: 1 (Herbicidal rate of 5% or more and less than 20%)
Late watergrass
  herbicidal effect rating, A: late watergrass: 2 (Herbicidal rate of 20% or more and less than 40%)

## CCCC(=O)Oc1c(C)nn(C)c(=O)c1-c1c(-c2ccc(OC)cc2)sc2c(Cl)cccc12 [4-024]
chickweed
  Herbicidal effect by soil treatment, P: chickweed: 0 (Herbicidal rate of 5% or less (almost no effect))
Persian speedwell; [3]
  herbicidal effect on R: persian speedwell (evaluation grade 0-5): 4 (Herbicidal rate of 70% or more and less than 90%)
Redroot pigweed; [3]
  herbicidal effect on N: redroot pigweed (evaluation grade 0-5): 5 (Herbicidal rate of 90% or more (almost completely withered))
Chinese sprangletop
  herbicidal effect on Chinese sprangletop (D): 3 (Herbicidal rate of 40% or more and less than 70%)
lambsquarters; [3]
  herbicidal effect on O: lambsquarters (evaluation grade 0-5): 3 (Herbicidal rate of 40% or more and less than 70%)
Southern crabgrass
  Herbicidal effect by soil treatment, F: southern crabgrass: 0 (Herbicidal rate of 5% or less (almost no effect))
oval-leafed pondweed
  Herbicidal effect, C: oval-leafed pondweed: 3 (Herbicidal rate of 40% or more and less than 70%)
Barnyard grass [1]
  herbicidal effect on barnyard grass (H): 4 (Herbicidal rate of 70% or more and less than 90%)
Rice flat sedge
  herbicidal effect on rice flat sedge (E): 5 (Herbicidal rate of 90% or more (almost completely withered))
Barnyard grass [2]
  Herbicidal effect by soil treatment, H: barnyard grass: 0 (Herbicidal rate of 5% or less (almost no effect))
windgrass
  Herbicidal effect by soil treatment, L: windgrass: 0 (Herbicidal rate of 5% or less (almost no effect))
Late watergrass
  herbicidal effect rating, A: late watergrass: 3 (Herbicidal rate of 40% or more and less than 70%)
